Assay results: PubChem BioAssay (NCI)
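Briefly, cells in 96-well plates were exposed to five compound concentrations for 48 h, and endpoints were estimated by linear interpolation. GI50 = concentration required for 50% inhibition of growth. The concentration for full growth arrest is given as TGI.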

Legend:
Test in all cases: NCI anticancer screen, dose series, 48 h
RXF 393 renal = test system: RXF 393 renal
M14 melanoma = test system: M14 melanoma
SNB-19 CNS = test system: SNB-19 CNS
A498 renal = test system: A498 renal
ACHN renal = test system: ACHN renal
HCC-2998 colon = test system: HCC-2998 colon
UACC-257 melanoma = test system: UACC-257 melanoma
OVCAR-5 ovarian = test system: OVCAR-5 ovarian

| SMILES | TGI (RXF 393 renal) [µM] | TGI (M14 melanoma) [µM] | TGI (SNB-19 CNS) [µM] | TGI (A498 renal) [µM] | TGI (ACHN renal) [µM] | TGI (HCC-2998 colon) [µM] | TGI (UACC-257 melanoma) [µM] | TGI (OVCAR-5 ovarian) [µM] | GI50 (HCC-2998 colon) [µM] | GI50 (M14 melanoma) [µM] | GI50 (UACC-257 melanoma) [µM] | GI50 (OVCAR-5 ovarian) [µM] | GI50 (SNB-19 CNS) [µM] | GI50 (A498 renal) [µM] | GI50 (ACHN renal) [µM] | GI50 (RXF 393 renal) [µM] |
| --- | --- | --- | --- | --- | --- | --- | --- | --- | --- | --- | --- | --- | --- | --- | --- | --- |
| CCC(=O)CC(=O)CCC(=O)Nc1cc(C)ccc1C | > 100 | > 100 | > 100 | > 100 | > 100 |  |  |  |  |  |  |  |  |  |  |  |
| O=c1/c(=C/c2ccccc2[N+](=O)[O-])sc2nnc(-c3ccco3)n12 | 32.6 | 33.3 | 56.3 | > 100 | > 100 | 43.4 | > 100 | > 100 |  |  |  |  |  |  |  |  |
| Cc1c2n(c(=O)[nH]c1=O)C1OC(CO)C(O2)C1O (stereo not given) | > 100 |  | > 100 | > 100 | > 100 |  | > 100 |  |  |  |  |  |  |  |  |  |
| c1ccc2cc(-c3cc4ccccc4s3)ccc2c1 |  | > 100 | > 100 | > 100 | > 100 | > 100 | > 100 | > 100 |  |  |  |  |  |  |  |  |
| O=C1c2ccccc2C(=O)N1CCn1ccc(NC(c2ccccc2)(c2ccccc2)c2ccccc2)nc1=O | 35.5 | 43 | 86.1 | 38.6 | 92.7 | 37.7 | 34.7 | 62.6 |  |  |  |  |  |  |  |  |
| O=C(Nc1ccn(CCO)c(=O)n1)c1ccccc1 | > 100 | > 100 |  | > 100 | > 100 |  | > 100 | > 100 |  |  |  |  |  |  |  |  |
| CC1(C)COC(C2(C)C(=O)C=C(c3ccccc3)c3ccccc32)=N1 (stereo not given) | > 100 | > 100 | > 100 |  | > 100 |  | > 100 |  |  |  |  |  |  |  |  |  |
| NC(=S)N/N=C(\CC1OC(=O)c2ccccc21)c1ccc(Cl)cc1 (stereo not given) | 49 | > 100 | > 100 |  | > 100 | 48.6 | > 100 | > 100 |  |  |  |  |  |  |  |  |
| O=C1CCC(Cl)=CC2CCCN12 (stereo not given) | > 100 | > 100 | > 100 | > 100 | > 100 | > 100 | > 100 | > 100 |  |  |  |  |  |  |  |  |
| O=C(CCN(C(=O)O)S(=O)(=O)c1ccc(NC(=O)c2ccccc2)cc1)Nc1ccccc1 | > 100 | > 100 | > 100 | > 100 | > 100 | > 100 | > 86.3 | > 100 |  |  |  |  |  |  |  |  |
| N.N.N.N.O=C([O-])CCl.O=C([O-])CCl.[Co+3].[O-][Cl+3]([O-])([O-])[O-] |  | > 100 | > 100 | > 100 | > 100 | > 100 | > 100 | > 100 | > 100 | > 100 | > 100 | > 100 | > 100 | > 100 | > 100 |  |
| CCC12CCCN(Cc3ccccc3)C1c1c(n(C)c3ccccc13)CC2 (stereo not given) | > 253 |  | > 253 |  | > 253 | > 253 | > 253 |  |  |  |  |  |  |  |  |  |
| COc1ccc2occ(CCC(=O)O)c2c1 | > 100 | > 100 | > 100 | > 100 | > 100 | > 100 | > 100 |  |  |  |  |  |  |  |  |  |
| O=C1CCC2(c3ccc(Cl)cc3)Nc3ncccc3N12 (stereo not given) | > 100 | > 100 |  | > 100 | > 100 | > 100 | > 100 | > 100 |  |  |  |  |  |  |  |  |
| CCCCCCCCCCCCCC(=O)OCC(C[As](=O)(O)O)OC(=O)CCCCCCCCCCCCC (stereo not given) | > 100 | > 100 | > 100 | > 100 | > 100 | > 100 | > 100 |  |  |  |  |  |  |  |  |  |
| CC(C)CCC1CC2C(=O)N(c3ccccc3)C(=O)C2c2[nH]c3ccccc3c21 (stereo not given) | 8.01 | 4.04 | 20.6 | 16 | 21.5 | 11.2 |  | 31.4 |  |  |  |  |  |  |  |  |
| C#CCOc1cccc(-c2ncc3cc(NC(=O)CCl)ccc3n2)c1 | 3.09 | 4.54 | 3.45 | 31 | 3.19 | 3.4 | 3.96 |  | 1.91 | 1.81 | 2.02 |  | 1.76 | 13.2 | 1.72 | 1.64 |
| CC(C)C(CCl)NC(=O)c1cccc(C(=O)N[C@H](CCl)C(C)C)n1 (stereo in doubt) | > 100 | > 100 | > 100 | > 100 | > 100 | > 100 |  | > 100 |  |  |  |  |  |  |  |  |
| CC12C/C(=C\c3ccccc3)C(=O)C3C1CCCC32 |  | > 100 | > 100 | > 100 | > 100 | > 100 | > 100 | > 100 |  |  |  |  |  |  |  |  |
| Cc1cc(Nc2ccc(NC(=O)c3ccc(Nc4ccnc5ccccc45)cc3)cc2)nc(N)n1 | 9.82 | > 100 |  | > 100 | > 100 |  | 87.7 | 37.5 |  | 7.62 | 21.8 | 3.4 |  | 5.13 | 21.6 | 2.76 |
| Nc1nc(Cl)cc(NCCCCCCCCNc2cc(Cl)nc(N)n2)n1 | 72 | > 100 | > 100 |  | 0.735 | > 100 | > 100 |  |  |  |  |  |  |  |  |  |
